Source: patent publication US7419960B2, “Hemiterpene glycosides with anti-platelet aggregation activities from Ilex pubescens” (Hong Kong Baptist University, priority 2005, dated 2008)
Marks after values point to notes of the source that are not given here.

System: platelet-rich-plasma (PRP)
Assay: Shear-induced platelet aggregation (SIPA) in platelet-rich-plasma, determined by turbidity
Format: cell-based, Sprague-Dawley rats
Conditions: 10 μM; for Platelet aggregation rate (%) ( X ± SD): n=10, rat PRP, shear stress 15 Pa for 360 seconds, 37° C., PPP = 100%, pre-shear PRP = 0% aggregation, Control 54.400 ± 8.592; for anti-platelet aggregation activity compared with salvianolic acid B and aspirin: high shear stress-induced platelet activation and aggregation test
Description: Preparation of platelet-rich-plasma (PRP): Sprague-Dawley rats (350-450 g) were used as blood donors to collect anticoagulated blood. Collected blood samples were immediately transferred into a plastic tube anticoagulant ( 1/10 volume of 3.8% trisodium citrate, pH 7.4). The platelet-rich-plasma (PRP) was then prepared by centrifuging the blood at 300 rpm for 15 minutes. The platelet concentration was adjusted to a level of 5×10^5/μl by addition of homologous platelet-poor-plasma (PPP) obtained after further centrifugation of blood at 1500 rpm for 15 minutes. For getting sufficient amount of PRP, at least two rats have to be sacrificed each time to obtain a pooled PRP sample.
Shear-induced platelet aggregation (SIPA): Adjusted PRP was divided into different groups according to the experimental protocol, mixed with 10 μM of pubescenosides A, B, aspirin and Salvianolic acid B. HAAke Rheometer RS 600 (Thermo Haake Corp., Ltd., Germany) with sensor C60/0.5° was employed as shear generator. The rheometer has the benefit of controlling shear stress and with an accuracy of 1 μm by the automatic adjustment of the gap between cone and plate. The shear program for PRP is: preheating sample at 37° C., increasing stress level from 0 to 15 Pa in the duration of 30 seconds, and then maintaining the stress level at 15 Pa for 360 seconds. After shearing, PRP was transferred to a platelet aggregometer (Chrono-Log aggregometer, Model 560 CA, Chrono-Log Corp., U.S.A) and SIPA was determined by turbidity. Since platelet-poor-plasma (PPP) and the pre-shear PRP were used as the turbidity scales of 100% and 0% aggregation, respectively, the aggregative degree of post-shear PRP could be measured.

O=C(/C=C/c1ccc(O)c2c1[C@H](C(=O)O[C@H](Cc1ccc(O)c(O)c1)C(=O)O)[C@@H](c1ccc(O)c(O)c1)O2)O[C@H](Cc1ccc(O)c(O)c1)C(=O)O [Salvianolic acid B, salvianolic acid B, reference compound]
Platelet aggregation rate (%) ( X ± SD): 39.650 ± 8.577 %

C=C(COC(=O)/C=C/c1ccc(O)c(O)c1)C(O)CO[C@@H]1O[C@H](CO)[C@@H](O)[C@H](O)[C@H]1O (stereo partly drawn) [Pubescenoside A, 4-caffeoyloxy-2-hydroxy-3-methylene-butane-1-O-β-D-glucopyranoside]
Platelet aggregation rate (%) ( X ± SD): 36.550 ± 7.697*^▪▴ % | anti-platelet aggregation activity compared with salvianolic acid B and aspirin: much stronger

C=C(CO)C(CO[C@@H]1OC(CO)[C@@H](O)C(O)C1O)OC(=O)/C=C/c1ccc(O)c(O)c1 (stereo partly drawn) [Pubescenoside B, 4-hydroxy-2-caffeoyloxy-3-methylene-butane-1-O-β-D-glucopyranoside]
Platelet aggregation rate (%) ( X ± SD): 27.300 ± 10.263*^□ % | anti-platelet aggregation activity compared with salvianolic acid B and aspirin: much stronger

CC(=O)Oc1ccccc1C(=O)O [Aspirin, aspirin, reference compound]
Platelet aggregation rate (%) ( X ± SD): 44.700 ± 4.668 %
